# pIC50: −log10 of the molar value. Counter-ions that a name gives are not always drawn.
# Legend:
# Leaf Hopper = assay: Insecticidal activity, leaf hopper; assay type: in vivo; settings: application rate of 5 lb./acre
# Ant = assay: Insecticidal activity, ant feeding; assay type: in vivo; settings: application rate of 5 lb./acre
# Bollworm = assay: Insecticidal activity, bollworm; assay type: in vivo; settings: application rate of 5 lb./acre
# Mite = assay: Insecticidal activity, mite; assay type: in vivo; settings: application rate of 5 lb./acre
# Bean aphid = assay: Insecticidal activity, bean aphid; assay type: in vivo; settings: application rate of 5 lb./acre
# [1] = biological target: T1, Leucine aminopeptidase (Microsomal) (LAPM) (Sus scrofa, UniProt P15145); assay: IC50 with leucine aminopeptidase (microsomal); assay type: biochemical, hog; settings: 72 hours at 0°-5°, pH 7.2, substrate (L)-leucine-β-napthylamide, fluorescence
# T1 construct: (LAPM) from hog kidney; from tissue; host or cells: hog kidney
# T1 sequence (P15145 1-963): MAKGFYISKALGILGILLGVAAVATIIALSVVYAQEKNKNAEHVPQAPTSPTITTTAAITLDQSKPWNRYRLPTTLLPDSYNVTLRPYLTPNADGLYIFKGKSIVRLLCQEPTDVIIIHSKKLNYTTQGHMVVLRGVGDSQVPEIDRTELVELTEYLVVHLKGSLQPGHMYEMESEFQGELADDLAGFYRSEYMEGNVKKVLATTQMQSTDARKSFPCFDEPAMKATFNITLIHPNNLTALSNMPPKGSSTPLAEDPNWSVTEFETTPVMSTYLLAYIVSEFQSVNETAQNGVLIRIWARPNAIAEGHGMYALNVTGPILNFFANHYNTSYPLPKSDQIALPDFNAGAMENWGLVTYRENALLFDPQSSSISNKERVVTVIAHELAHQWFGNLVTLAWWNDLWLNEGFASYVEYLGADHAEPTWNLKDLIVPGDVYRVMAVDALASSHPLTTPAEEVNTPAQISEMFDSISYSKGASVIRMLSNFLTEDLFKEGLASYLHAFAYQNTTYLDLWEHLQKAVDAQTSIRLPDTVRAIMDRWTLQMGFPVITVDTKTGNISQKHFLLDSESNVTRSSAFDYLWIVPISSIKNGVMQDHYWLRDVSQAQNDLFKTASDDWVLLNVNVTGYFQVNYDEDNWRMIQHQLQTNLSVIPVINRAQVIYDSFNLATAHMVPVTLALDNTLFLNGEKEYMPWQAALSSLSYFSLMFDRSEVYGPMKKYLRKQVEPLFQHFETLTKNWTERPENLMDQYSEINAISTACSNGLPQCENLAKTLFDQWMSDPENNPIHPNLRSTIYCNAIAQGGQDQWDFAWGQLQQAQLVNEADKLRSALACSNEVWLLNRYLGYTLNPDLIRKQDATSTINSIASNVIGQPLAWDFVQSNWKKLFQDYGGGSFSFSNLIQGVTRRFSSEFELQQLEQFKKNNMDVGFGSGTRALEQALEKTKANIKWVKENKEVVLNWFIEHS
# Excerpt: (§1) An IC50 value represents an approximation of the concentration of enzyme inhibitor required to inhibit enzyme activity by fifty percent. These values represent acceptable approximations of the inhibition constant KI, the dissociation constant in the following equation: [formula] where [E] is the concentration of enzyme, [I] is the concentration of inhibitor and [EI] is the concentration of enzyme/inhibitor complex.
# (§2) Determination of IC50 values for LAPC and LAPM was accomplished by spectrophotometrically or fluorometrically following the rate of formation of p-nitroaniline or β-naphthylamine from hydrolysis of (L)-leucine-p-nitroanilide or (L)-leucine-β-napthylamide, respectively, in the presence of active enzyme. IC50 values for HEDA were determined by monitoring, via high pressure liquid chromatography, the formation of destyr-enkephalin from leu-enkephalin.
# Assay mixtures were prepared containing 0.613 μg LAPM, 10 μg/mL bovine serum albumin (BSA). 0.1M phosphate buffer, pH 7.2, in a total volume of 2.7 mL. Measured amounts of compounds 5 to be tested for inhibitory activity were added in additional 0.1M phosphate buffer to a total volume of 3 mL. After 72 hours at 0°-5°, 1 mL of the enzyme/inhibitor mixture was treated with 4 μL of 0.2M (L)-leucine-β-napthylamide in dimethylsulfoxide, and the rate of increase of fluorescence at 410 nm, while exciting at 310 nm. was measured. Control experiments were performed identically, except no inhibitor was present. The concentration of the selected compound 5 observed to decrease reaction rates by one-half was used to determine the value of IC50 for each compound. This was accomplished by subtracting one-half the concentration of enzyme present in the sample mixtures (1.6×10^-9 M) from the inhibitor concentration observed to decrease reaction rates by one-half.
# [2] = biological target: T2, Leucine aminopeptidase (cytosolic) (LAPC) (Sus scrofa, UniProt P28839); assay: IC50 with leucine aminopeptidase (cytosolic); assay type: biochemical, hog; settings: 112 hours at 0°-5°, pH 8.5, substrate (L)-leucine-p-nitroanilide, absorption at 405 nm
# T2 construct: (LAPC) from hog kidney; from tissue; host or cells: hog kidney
# T2 sequence (P28839 33-519 limits assumed): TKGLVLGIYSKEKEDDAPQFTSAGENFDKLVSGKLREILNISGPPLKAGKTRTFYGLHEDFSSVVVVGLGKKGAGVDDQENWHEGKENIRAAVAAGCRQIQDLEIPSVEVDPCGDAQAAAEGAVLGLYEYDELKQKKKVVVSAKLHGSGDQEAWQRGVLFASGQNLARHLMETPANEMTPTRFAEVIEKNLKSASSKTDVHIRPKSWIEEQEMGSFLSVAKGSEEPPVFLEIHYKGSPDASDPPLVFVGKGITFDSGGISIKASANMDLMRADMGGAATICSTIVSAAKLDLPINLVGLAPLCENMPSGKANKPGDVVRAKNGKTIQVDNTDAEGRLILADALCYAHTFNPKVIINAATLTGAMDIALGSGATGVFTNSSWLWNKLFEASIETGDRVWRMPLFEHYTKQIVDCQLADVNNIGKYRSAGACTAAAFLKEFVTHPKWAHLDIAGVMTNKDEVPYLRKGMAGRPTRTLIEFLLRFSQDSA
# Excerpt: as §1, §2
# Assay mixtures were prepared, containing 10×10^-8 M LAPC, 1 mg/mL BSA, 0.025M MgCl2 and 0.01M tris-HCl buffer, pH 8.5, in a total volume of 2.7 mL. Varying amounts of selected compounds 5, dissolved in the same buffer, were added to make a final volume of 3.0 mL. After storage for 112 hours at 0°-5°, 1 mL of this mixture was treated with 25 μL of a 0.1M (L)-leucine-p-nitroanilide in dimethylsulfoxide, and the rate of increase of absorption at 405 nm was measured. IC50 values were calculated as in Example 26, above.
# [3] = biological target: Human enkephalin-degrading aminopeptidase (HEDA); assay: IC50 with human enkephalin-degrading aminopeptidase; assay type: biochemical; settings: incubated at 37° for 2 hours, pH 7.8, substrate leu-enkephalin, HPLC
# Excerpt: An IC50 value represents an approximation of the concentration of enzyme inhibitor required to inhibit enzyme activity by fifty percent. These values represent acceptable approximations of the inhibition constant KI, the dissociation constant in the following equation: [formula] where [E] is the concentration of enzyme, [I] is the concentration of inhibitor and [EI] is the concentration of enzyme/inhibitor complex. Determination of IC50 values for LAPC and LAPM was accomplished by spectrophotometrically or fluorometrically following the rate of formation of p-nitroaniline or β-naphthylamine from hydrolysis of (L)-leucine-p-nitroanilide or (L)-leucine-β-napthylamide, respectively, in the presence of active enzyme. IC50 values for HEDA were determined by monitoring, via high pressure liquid chromatography, the formation of […]-enkephalin from leu-enkephalin. […] At this point, 15 μL of a 10 mM solution of leu-enkephalin, acetic acid salt in 2 mM phosphate buffer, pH 7.8, were added to each sample mixture. […] Detection was by ultraviolet absorption at 215 nm. A ratio of a peak corresponding to ([…])-enkephalin at about […] and a peak corresponding to leu-enkephalin at about 3.9 min. indicated reaction progress. The rate of increase of this ratio corresponded to the rate of enzyme hydrolysis of substrate leu-enkephalin.
# α-chymotrypsin = α-chymotrypsin (Bos taurus, UniProt P00766); settings: Matteson et al., J. Am. Chem. Soc. 103:5241 (1981); cited from earlier work
# subtilisin = settings: Philipp, et al., FEBS Letters 133:36 (1971); cited from earlier work
pIC50 [1],pIC50 [2],pIC50 [3],Structure (SMILES),also measured
–,–,–,"CC(C)CB1OC(C)(C)C(C)(C)O1 [2 (R=CH3 CH(CH3)2), 4,4,5,5-tetramethyl-2-(2-methylpropyl)-1,3,2-dioxaborolane]","Leaf Hopper, % control (Leaf Hopper): 50%"
–,–,–,"CB1OC(C)(C)C(C)(C)O1 [2 (R=CH3), 2,4,4,5,5-pentamethyl-1,3,2-dioxaborolane]","Ant Feeding, % control (Ant): 31%"
–,–,–,"CCC(C)B1OC(C)(C)C(C)(C)O1 (stereo not drawn) [2 (R=CH(CH3)C2 H5), 2-(1-methylpropyl)-4,4,5,5-tetramethyl-1,3,2-dioxaborolane]","Bollworm, % control (Bollworm): 20%"
–,–,–,"CC1(C)OB(Cc2ccccc2)OC1(C)C [2 (R=CHC6 H5), 4,4,5,5-tetramethyl-2-(phenylmethyl)-1,3,2-dioxaborolane]","Mite, % control (Mite): 70%"
–,–,–,"CC(C)CC(Cl)B1OC(C)(C)C(C)(C)O1 (stereo not drawn) [3 (R=CH3 CH(CH3)2), 2-(1-chloro-3-methylbutyl)-4,4,5,5-tetramethyl-1,3,2-dioxaborolane]","Mite, % control (Mite): 64%"
–,–,–,"CCC(C)C(Cl)B1OC(C)(C)C(C)(C)O1 (stereo not drawn) [3 (R=CH(CH3)C2 H5), 2-(1-chloro-2-methylbutyl)-4,4,5,5-tetramethyl-1,3,2-dioxaborolane]","Bean aphid, % control (Bean aphid): 39%"
–,–,–,"CC1(C)OB(C(Cl)Cc2ccccc2)OC1(C)C (stereo not drawn) [3 (R=CHC6 H5), 2-(1-chloro-2-phenylethyl)-4,4,5,5-tetramethyl-1,3,2-dioxaborolane]","Bean aphid, % control (Bean aphid): 48%"
9.70,8.00,8.28,"CC1(C)OB(C(N)Cc2ccccc2)OC1(C)C (stereo not drawn) [5 (R=CH2 C6 H5), 4,4,5,5-tetramethyl-α-(phenylmethyl)-1,3,2-dioxoborolane-2-methanamine, trifluoroacetic acid salt]",–
8.92,6.82,8.13,"CC(C)CC(N)B1OC(C)(C)C(C)(C)O1 (stereo not drawn) [5 (R=CH2 CH(CH3)2), 3-methyl-1-(4,4,5,5-tetramethyl-1,3,2-dioxaborolane-2-yl)-1-butamine, trifluoroacetic acid salt]",–
8.19,4.52,7.15,"CC(N)B1OC(C)(C)C(C)(C)O1 (stereo not drawn) [5 (R=CH3), α,4,4,5,5,pentamethyl-1,3,2-dioxoborolane-2-methanamine, trifluoroacetic acid salt]",–
8.67,7.15,7.38,"CC(C)C(N)B1OC(C)(C)C(C)(C)O1 (stereo not drawn) [5 (R=CH(CH3)2), 4,4,5,5-tetramethyl-α-(1-methylethyl)-1,3,2-dioxaborolane-2-methanamine, trifluoroacetic acid salt]",–
8.66,7.52,7.39,"CCC(C)C(N)B1OC(C)(C)C(C)(C)O1 (stereo not drawn) [5 (R=CH(CH3)C2 H5), 4,4,5,5-tetramethyl-α-(1-methylpropyl)-1,3,2-dioxaborolane-2-methanamine, trifluoroacetic acid salt]",–
–,–,–,CC(=O)NC(Cc1ccccc1)B(O)O (stereo not drawn) [IV],inhibition of α-chymotrypsin (α-chymotrypsin): observed to inhibit; inhibition of subtilisin (subtilisin): inhibited

# Source: patent US4537773A, “α-Aminoboronic acid derivatives” (E. I. Du Pont de Nemours and Company, priority 1983, dated 1985)
